Values of other authors in patent US12251426B2 (priority 2020, dated 2025).

Key:
[1] = biological target: SARS-CoV 3CLpro (Severe acute respiratory syndrome coronavirus, UniProt P0C6X7)
[2] = biological target: SARS-CoV PLpro (Severe acute respiratory syndrome coronavirus, UniProt P0C6X7)
[3] = biological target: SARS-CoV RdRp (Severe acute respiratory syndrome coronavirus, UniProt P0C6X7)
[4] = tested on: macrophages; conditions: in vitro
[5] = biological target: SARS-CoV-2 S-protein/ACE2 receptor interface (UniProt P0DTC2+Q9BYF1)
[6] = normal intake
[7] = biological target: helicase (Severe acute respiratory syndrome coronavirus 2, UniProt P0DTD1)
[8] = biological target: 3CLpro (Severe acute respiratory syndrome coronavirus 2, UniProt P0DTD1)
[9] = tested on: T lymphocytes; conditions: in vitro, exogenous
[10] = tested on: alveolar epithelial lining surface; conditions: acute lung injury caused by sepsis in mice
[11] = biological target: SARS-CoV-2 PLpro (Severe acute respiratory syndrome coronavirus 2, UniProt P0DTD1)
[12] = tested on: phospholipase A2 (PLA2); conditions: in vitro
[13] = tested on: human coronavirus NL63 (HCoV-NL63); conditions: in vivo study (so in the source)
[14] = tested on: influenza A virus; conditions: in vitro
[15] = biological target: S2 subunit of SARS-CoV (Severe acute respiratory syndrome coronavirus, UniProt P59594)
[16] = biological target: SARS-CoV helicase protein (Severe acute respiratory syndrome coronavirus, UniProt P0C6X7)

## [Zn+2] [Zinc ions]
[1]
  inhibition of SARS-CoV 3CLpro: can inhibit
[2]
  inhibition of SARS-CoV PLpro: can also inhibit
[3]
  inhibition of SARS-CoV RdRp: direct inhibition

## C=C1CC[C@H](O)C/C1=C/C=C1\CCC[C@]2(C)[C@@H]([C@H](C)CCCC(C)C)CC[C@@H]12 [vitamin D, cholecalciferol]
[4]
  expression of anti-inflammatory cytokines by macrophages: increases
  expression of pro-inflammatory cytokines by macrophages: reduces

## O=c1c(O)c(-c2ccc(O)c(O)c2)oc2cc(O)cc(O)c12 [Quercetin, quercetin]
[1]
  inhibition of SARS-CoV 3CLpro: inhibits
[5]
  binding affinity to S-protein/ACE2 receptor interface: significant binding affinity

## COc1ccc([C@@H]2CC(=O)c3c(O)cc(O[C@@H]4O[C@H](CO[C@@H]5O[C@@H](C)[C@H](O)[C@@H](O)[C@H]5O)[C@@H](O)[C@H](O)[C@H]4O)cc3O2)cc1O [Hesperidin, hesperidin]
[6]
  signs of toxicity: No signs of toxicity
[7]
  binding affinity to helicase: high binding affinity
[8]
  binding affinity to 3CLpro: high binding affinity

## O=C1O[C@H]([C@@H](O)CO)C(O)=C1O [vitamin C, ascorbic acid]
[9]
  effect on number, proliferation, and function of T lymphocytes: increase
[10]
  repair of the alveolar epithelial lining surface: stimulates repair

## O=C(O[C@@H]1Cc2c(O)cc(O)cc2O[C@@H]1c1cc(O)c(O)c(O)c1)c1cc(O)c(O)c(O)c1 [EGCG, epigallocatechin gallate]
[1]
  inhibition of SARS-CoV 3CLpro: inhibits
[11]
  binding affinity to SARS-CoV-2 PLpro: strong binding affinity
[12]
  inhibition of PLA2: inhibit

## O=C(O)/C=C/c1ccc(O)c(O)c1 [Caffeic acid, caffeic acid]
[13]
  inhibition of HCoV-NL63: blocking virus attachment
other
  water solubility: slightly water-soluble
[14]
  inhibitory effect on replication of influenza A virus: highly inhibitory effect

## O=c1cc(-c2ccc(O)c(O)c2)oc2cc(O)cc(O)c12 [Luteolin, luteolin]
[5]
  binding affinity to S-protein/ACE2 receptor interface: high binding affinity
[15]
  binding affinity to S2 subunit of SARS-CoV: high binding affinity

## O=c1c(O)c(-c2cc(O)c(O)c(O)c2)oc2cc(O)cc(O)c12 [myricetin]
[16]
  inhibition of SARS-CoV helicase protein: inhibits
